What was measured:
[1] = test system: TC28 cells; experiment: Cell viability by LDH release in stressor-exposed chondrocytes; format: cell-based; conditions: for cell viability (LDH release) under SIN-1 / cell viability under NOC-12 / cell viability of cells exposed to SIN-1 or NOC-12: compound 1 μM; for cell viability (LDH release) under SIN-1: 100 μM SIN-1; for cell viability under NOC-12: NOC-12 (250 μM)
Method: (§1) This example describes screening assays using defined chondrocyte functions, for identifying agents that protect chondrocytes from mitochondrial stressors, such as energy depletion or reactive free radicals. Chondrocytic TC28 cells were maintained at 37° C., 5% CO2 in monolayer culture in DMEM/Ham's F12 medium (1:1) supplemented with 10% FCS, 1% L-glutamine, 100 U/ml penicillin and […] streptomycin (Omega Scientific, Tarzana, Calif.). To more closely approximate the in vivo physiologic nonadherent state of chondrocytes for monitoring GAG release (FIG. 10), an in vitro culture system was used wherein TC28 cells were transferred to 6-well plates that had been previously coated for 18 hours at 22° C. with the cell adhesion inhibitor poly-2-hydroxymethacrylate (polyHEMA), provided as a 10% (w/v) solution in 95% ethanol, then washed twice with PBS. Complete medium (DMEM/F12 supplemented as described above) was then added to wells, and cells were maintained under these conditions for up to 72 hours (Folkman et al., 1978 Nature 273:345; Reginato et al., 1994 Arthritis Rheum. 37:1338). Maintenance of chondrocyte phenotype was confirmed by RT-PCR determination of gene transcripts encoding the chondrocyte extracellular matrix components type II collagen and aggrecan (Reginato et al., 1994).
Cells were exposed to one of several agonists added to cultures as stressors for 72 hours, in the absence or presence of candidate chondrocyte protective agents (listed in Table 2). According to non-limiting theory, such stressors may act as one or more of a mitochondrial inhibitor, an inducer of altered mitochondrial function, an apoptogen, an energy-depleting agent, or the like. Stressors used in this example included the […] NOC-12 (N-ethyl-2-(1-ethyl-2-hydroxy-2-nitrosohydrazino)ethanamine; Calbiochem, La Jolla, Calif.); the peroxynitrite donor SIN-1 (3-morpholinosydnonimine, HCl; Calbiochem); and the inflammatory cytokine human recombinant interleukin-1 beta (IL-1β, Calbiochem). Cytotoxicity was determined using the lactate dehydrogenase release assay (Promega, Madison, Wis.) as described above and according to the manufacturer's instructions, and chondrocyte intracellular ATP was determined using the luciferase assay as described above in Example 1.

[2] = test system: TC28 cells; experiment: GAG release, dimethylene blue dye binding; format: cell-based; conditions: for GAG release caused by stressor: TC28 nodules, SIN-1 100 μM, NOC-12 25 μM, IL-1β
Method: as §1
Glycosaminoglycan (GAG) release is widely believed to be a cardinal event in the pathogenesis of osteoarthritis, and is stimulated by IL-1β (see, e.g., Sztrolovics et al., 1999 Biochem. J. 339:571 and references cited therein). Therefore, GAG release was determined in chondrocytes maintained on polyHEMA-coated plates as follows: Chondrocyte cartilage “nodules” from the polyHEMA cultures were digested for one hour with papain, 300 μg/ml in 20 mM sodium phosphate-pH 6.8, 1 mM EDTA, 2 mM dithiothreitol. Released GAG was assayed colorimetrically by dimethylene blue (DMB) dye binding according to established procedures (Farndale et al., 1986 Biochim. Biophys. Acta 883:173; Sztrolovics et al., 1999 Biochem. J. 339:571). Briefly, aliquots of the papain digest were added to a dye solution containing 46 μM DMB, 40 mM glycine-pH 3.0, 40 mM NaCl and read immediately in a spectrophotometer at 525 nm. Quantification of GAG in the samples was achieved from calculations using a standard curve generated with samples of 1–50 μg/ml chondroitin sulfate. Mitochondrial protecting agents based on derivatized creatine, ethoxyquin and guanidine compounds were synthesized essentially as disclosed in WO99/37294 (PCT/US99/01718) and WO99/55321 (PCT/US99/09990), which are hereby incorporated by reference in their entireties; these agents were tested as representative candidate chondrocyte protective agents.

[3] = test system: TC28 cells; experiment: Intracellular ATP, luciferase assay; format: cell-based; conditions: for intracellular ATP levels relative to control culture not exposed to NOC-12: NOC-12 alone or in the presence of 1 μM compound
Method: (§2) Levels of total cellular ATP were measured by a modification of luciferase-based assays known in the art (Lin et al., Anal. Biochem. 24:531–540, 1968); related assays and modifications may alternatively be used (see, e.g., Turman et al., In Vitro Cell. Dev. Biol. Anim. 32:1–4, 1996, for an assay format that uses a fluorescent plate reader). In brief, 2×10^6 cells were washed and pelleted in 10 ml phosphate-buffered saline (PBS). The cell pellets were snap-frozen in a dry ice/ethanol bath, after which […] of 0.2 M HCl was added, followed by 0.3 ml of 2 mM glycine (pH 9.0). Samples were heated at 100° C. for five minutes, then placed on ice. A standard curve was developed using 0 to 500 pmol of purified ATP (disodium salt). One hundred (100) μl of the cell extract, or purified ATP standard, was added to an equal volume of the ATP assay mixture (containing MgSO4, DTT, EDTA, luciferase and luciferin, all from the Sigma Bioluminescence Assay Kit and all diluted 1:25). Following a 5 second incubation and 15 second integration, samples were read on a TD-20/20 Luminometer (Turner Designs, Sunnyvale, Calif.).

[4] = test system: articular chondrocytes and TC28 cells; experiment: Intracellular ATP, statements covering both cell preparations; format: cell-based, human; conditions: for intracellular ATP levels (qualitative): SIN-1 500 μM, NOC-12 250 μM, antimycin A and oligomycin concentration not stated
Method: as §2
In FIG. 1A, articular chondrocytes or TC28 cells (5×10^5) in 5 ml were studied in triplicate in the presence of antimycin (or oligomycin, see next Example) at the indicated concentrations, administered every 24 hours for a total of 72 hours, and total intracellular ATP concentrations were determined as described above. Viability determinations are shown in FIG. 1B, where 2×10^4 chondrocytes or TC28 cells in 0.2 ml were cultured in triplicate in the presence of antimycin (or oligomycin) at the indicated concentrations, administered every 24 hours for a total of 72 hours, and cell viability was determined by trypan blue dye exclusion (>200 cells counted for each replicate).

[5] = test system: articular chondrocytes and TC28 cells; experiment: Oxygen consumption with a Clark electrode (respiratory rate); format: cell-based, human; conditions: SIN-1 500 μM; NOC-12 250 μM; antimycin A and oligomycin concentration not stated
[6] = test system: Articular Chondrocytes; experiment: Intracellular ATP, luciferase assay; format: cell-based, human; conditions: 10 ng/ml TGFβ, 0.025 mM antimycin A, 0.02 μg/ml oligomycin; mean ± SD
Method: Human articular cartilage chondrocytes were obtained by collagenase digestion of articular cartilage samples, and subsequent monolayer culture, essentially as described by Terkeltaub et al. (Arthritis Rheum. 41:2152–2164, 1998). The starting material for these primary cultures was human articular cartilage excised during surgical joint replacement, or obtained at autopsy from normal or osteoarthritic joints. The articular chondrocytes were grown in Dulbecco's modified Eagle's Medium with high glucose (DMEM high glucose, Life Technologies, Inc. Grand Island, N.Y.) with 10% fetal calf serum (FCS), 1% glutamine, 100 U/ml penicillin and 50 μg/ml streptomycin (all reagents from Sigma, St. Louis, Mo., unless otherwise noted). Typically, only first passage cells were used in the studies described herein.
as §2, with “Calif.). […]” for “Calif.).”

Compound: Cc1cc(O)ccc1NC(=N)N [A]
- cell viability (LDH release) under SIN-1 [1]: protective effect on cell viability
- cell viability under NOC-12 [1]: moderating effect of the test compounds on NO cytotoxicity

Compound: N=C1NCCN1CC(=O)O [B]
- cell viability (LDH release) under SIN-1 [1]: protective effect on cell viability
- cell viability under NOC-12 [1]: moderating effect of the test compounds on NO cytotoxicity

Compound: CN(CC(=O)O)C(=N)N [C]
- cell viability (LDH release) under SIN-1 [1]: protective effect on cell viability
- cell viability under NOC-12 [1]: moderating effect of the test compounds on NO cytotoxicity
- GAG release induced by SIN-1 or NOC-12 ([2]; SIN-1 (100 μM) or NOC-12 (25 μM), 1 μM compound, not shown): the severity of this release was moderated
- IL-1β-stimulated GAG release ([2]; TC28 nodules on polyHEMA-coated plates): somewhat attenuated the degree of GAG release

Compound: N=C(N)Nc1ccc(N2CCOCC2)cc1 [E]
- cell viability under NOC-12 [1]: significantly higher viability
- intracellular ATP levels relative to control culture not exposed to NOC-12 [3]: significant depression of intracellular ATP

Compound: CC(=N)NNCC1(C)CCc2c(C)c(O)c(C)c(C)c2O1 (centres unmarked) [J]
- cell viability of cells exposed to SIN-1 or NOC-12 [1]: demonstrated chondrocyte protective activity

Compound: CN(C)c1cc(C(C)(C)c2ccc(O)c(N(C)C)c2)ccc1O [K]
- cell viability of cells exposed to SIN-1 or NOC-12 [1]: demonstrated chondrocyte protective activity

Compound: CC(C)(c1ccc(O)cc1)c1ccc(O)c(N)c1 [L]
- cell viability of cells exposed to SIN-1 or NOC-12 [1]: demonstrated chondrocyte protective activity

Compound: CCNCCN(CC)N(O)N=O [NOC-12, N-ethyl-2-(1-ethyl-2-hydroxy-2-nitrosohydrazino)ethanamine]
- intracellular ATP levels relative to control culture not exposed to NOC-12 [3]: significant depression of intracellular ATP
- intracellular ATP levels (qualitative) [4]: depressed intracellular ATP levels
- respiratory rates [5]: markedly inhibited respiratory rates
- GAG release caused by stressor [2]: also released GAG

Compound: Nc1c[n+](N2CCOCC2)no1.[Cl-] [SIN-1, 3-morpholinosydnonimine, HCl]
- intracellular ATP levels (qualitative) [4]: depressed intracellular ATP levels
- respiratory rates [5]: markedly inhibited respiratory rates
- GAG release caused by stressor [2]: also released GAG

Compound: IL-1β: inflammatory cytokine human recombinant interleukin-1 beta
- effect of stressor on viability ([1]; TC28 cells): did not cause a decrease
- effect of stressor on intracellular ATP levels ([3]; TC28 cells): did not cause a decrease in intracellular ATP levels
- GAG release caused by stressor [2]: IL-1β-stimulated GAG release

Compound: TGFβ
- ATP (pmoles/μg DNA):TC28 cells ([3]; 10 ng/ml TGFβ, 0.025 mM antimycin A, 0.02 μg/ml oligomycin, mean ± SD): 801.6 ± 4.9 pmoles/μg DNA
- increase of intracellular ATP ([4]; chondrocytes, assessed 72 hours after treatment): about 3 fold
- ATP (pmoles/μg DNA): Articular Chondrocytes [6]: 1,158 ± 6.9 pmoles/μg DNA

Source: US7005274B1, “Methods and compositions for diagnosing and treating arthritic disorders and regulating bone mass” (MIGENIX Corp., priority 1999, dated 2006)
